{"source": "ChEMBL document CHEMBL1129615", "about": "“Synthesis and quantitative structure-activity relationship of 17 beta-(hydrazonomethyl)-5 beta-androstane-3 beta,14 beta-diol derivatives that bind to Na+,K(+)-ATPase receptor” (J Med Chem, 1996)", "key": {"[1]": {"test": "Acid dissociation constant was determined", "type": "ADME"}, "[2]": {"molecular_target": "Sodium/potassium-transporting ATPase", "test": "Displacement of [3H]ouabain from dog kidney Na+/K+ ATPase", "type": "protein-complex assay, Canis lupus familiaris"}}}
{"smiles": "C[C@]12CC[C@H](O)C[C@H]1CC[C@@H]1[C@@H]2CC[C@]2(C)[C@@H](/C=N/N=C(N)N)CC[C@]12O.Cl", "values": [{"measurement": "pKa", "setting": "[1]", "result": 9.35}, {"measurement": "-Log IC50", "setting": "[2]", "result": 7}]}
{"smiles": "CN1CCN=C1N/N=C/[C@H]1CC[C@]2(O)[C@@H]3CC[C@@H]4C[C@@H](O)CC[C@]4(C)[C@H]3CC[C@]12C", "values": [{"measurement": "pKa", "setting": "[1]", "result": 8.05}, {"measurement": "-Log IC50", "setting": "[2]", "result": 6}]}
{"smiles": "C/C(=N\\N=C(N)N)[C@H]1CC[C@]2(O)[C@@H]3CC[C@@H]4C[C@@H](O)CC[C@]4(C)[C@H]3CC[C@]12C", "values": [{"measurement": "pKa", "setting": "[1]", "result": 9.49}, {"measurement": "-Log IC50", "setting": "[2]", "result": 6.7}]}
{"smiles": "C[C@]12CC[C@H](O)C[C@H]1CC[C@@H]1[C@@H]2CC[C@]2(C)[C@@H](/C=N/NC3=NC(=O)CN3)CC[C@]12O", "values": [{"measurement": "pKa", "setting": "[1]", "result": 3.58}, {"measurement": "-Log IC50", "setting": "[2]", "result": 4.7}]}
{"smiles": "C[C@]12CC[C@H](O)C[C@H]1CC[C@@H]1[C@@H]2CC[C@]2(C)[C@@H](/C=N/NC(N)=O)CC[C@]12O", "values": [{"measurement": "pKa", "setting": "[1]", "result": 1.78}, {"measurement": "-Log IC50", "setting": "[2]", "result": 5.1}]}
{"smiles": "C[C@]12CC[C@H](O)C[C@H]1CC[C@@H]1[C@@H]2CC[C@]2(C)[C@@H](/C=N/N=C(\\N)S)CC[C@]12O", "values": [{"measurement": "pKa", "setting": "[1]", "result": 0.86}, {"measurement": "-Log IC50", "setting": "[2]", "result": 4.7}]}
{"smiles": "C[C@]12CC[C@H](O)C[C@H]1CC[C@@H]1[C@@H]2CC[C@]2(C)[C@@H](/C=N/NC3=NCCN3)CC[C@]12O", "values": [{"measurement": "pKa", "setting": "[1]", "result": 8.42}, {"measurement": "-Log IC50", "setting": "[2]", "result": 6.7}]}
{"smiles": "C[C@]12CC[C@H](O)C[C@H]1CC[C@@H]1[C@@H]2CC[C@]2(C)[C@@H](/C=N/NC3=NCCCN3)CC[C@]12O", "values": [{"measurement": "pKa", "setting": "[1]", "result": 10.4}, {"measurement": "-Log IC50", "setting": "[2]", "result": 6.6}]}
{"smiles": "C[C@]12CC[C@H](O)C[C@H]1CC[C@@H]1[C@@H]2CC[C@]2(C)[C@@H](/C=N/Nc3ccccn3)CC[C@]12O", "values": [{"measurement": "pKa", "setting": "[1]", "result": 6.34}, {"measurement": "-Log IC50", "setting": "[2]", "result": 5.7}]}
{"smiles": "C[C@]12CC[C@H](O)C[C@H]1CC[C@@H]1[C@@H]2CC[C@]2(C)[C@@H](/C=N/Nc3ncccn3)CC[C@]12O", "values": [{"measurement": "pKa", "setting": "[1]", "result": 3.44}, {"measurement": "-Log IC50", "setting": "[2]", "result": 4.6}]}
{"smiles": "CSC(=N)N/N=C/[C@H]1CC[C@]2(O)[C@@H]3CC[C@@H]4C[C@@H](O)CC[C@]4(C)[C@H]3CC[C@]12C", "values": [{"measurement": "pKa", "setting": "[1]", "result": 5.76}, {"measurement": "-Log IC50", "setting": "[2]", "result": 5.7}]}
{"smiles": "C[C@]12CC[C@H](O)C[C@H]1CC[C@@H]1[C@@H]2CC[C@]2(C)[C@@H](/C=N/N=C(\\N)Nc3ccccc3)CC[C@]12O", "values": [{"measurement": "pKa", "setting": "[1]", "result": 8.62}, {"measurement": "-Log IC50", "setting": "[2]", "result": 5.2}]}
{"smiles": "C/N=C(\\C[N+](=O)[O-])N/N=C/[C@H]1CC[C@]2(O)[C@@H]3CC[C@@H]4C[C@@H](O)CC[C@]4(C)[C@H]3CC[C@]12C", "values": [{"measurement": "pKa", "setting": "[1]", "result": 2.37}, {"measurement": "-Log IC50", "setting": "[2]", "result": 4.5}]}
